Values of other authors, collected in patent publication EP0266549A1, “Cinnamyl amines, process for their preparation and pharmaceutical compositions containing them” (BOEHRINGER MANNHEIM ITALIA S.P.A., priority 1986, dated 1988).
Where a name gives a salt, the structure may show the parent alone.

Details: in vitro; Arch. lnt. Pharmacology, 272, 283, 1984; cited from earlier work

In the case of `Fc1ccc(C(c2ccc(F)cc2)N2CCN(C/C=C/c3ccccc3)CC2)cc1` [Flunarizine HCl], the “activity as "radical scavenger"” value is listed as “very active”.
